The results in this text go back to ChEMBL document CHEMBL1201862, “PubChem BioAssay data set” (2004).

For one test, the target named is Genome polyprotein (dengue virus type 2, UniProt P29990). Description: Dengue-2 NS5 methyltransferase inhibitors, primary screen, biochemical, confirmation dose response (AID 588689). It is filed as functional.
The next test addresses T1, Streptokinase A (Streptococcus pyogenes serotype M1, UniProt P10520).
T1 sequence (P10520 whole entry): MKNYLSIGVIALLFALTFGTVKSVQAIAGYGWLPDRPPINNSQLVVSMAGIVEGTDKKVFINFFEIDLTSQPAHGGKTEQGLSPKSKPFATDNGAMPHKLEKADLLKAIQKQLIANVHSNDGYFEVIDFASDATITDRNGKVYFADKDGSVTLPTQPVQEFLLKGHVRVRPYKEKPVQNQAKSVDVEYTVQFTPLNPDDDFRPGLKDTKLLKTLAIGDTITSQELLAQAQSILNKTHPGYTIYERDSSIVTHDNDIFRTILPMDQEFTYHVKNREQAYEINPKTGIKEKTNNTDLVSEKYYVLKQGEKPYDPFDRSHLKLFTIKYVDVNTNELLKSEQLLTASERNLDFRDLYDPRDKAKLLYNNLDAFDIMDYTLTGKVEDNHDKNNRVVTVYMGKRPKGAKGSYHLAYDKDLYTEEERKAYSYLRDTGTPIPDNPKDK
Kind of test: S. pyogenes streptokinase expression inhibitors, potency, dose response, plasminogen activation absorbance, OD405 (AID 1914).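 Note: secreted streptokinase activity via plasminogen activation per viability signal from cell pellet.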 It is filed as functional, Streptococcus pyogenes M1 GAS.

The subject of a further test is Streptococcus. Description: Group A Streptococcus viability loss, dose response, counter-screen for streptokinase expression inhibitor project, luminescence, BacTiterGlo (AID 1915).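 Note: potency for reduction of bacterial viability or growth.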 The class given is functional, organism-based.
Test [1] can be described thus: ARNT/TACC3 interaction disruptors, potency, confirmation, biochemical, AlphaScreen, cherry-picked samples (AID 651703).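 Note: His-tagged ARNT PAS-B domain paired with GST-TACC3 E629A dimer coactivator fragment; potency of inhibitors that break up the complex and lower AlphaScreen signal.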 The class given is functional, Homo sapiens. (In general: Bead proximity is the source of the signal in Alpha formats.)
The next test relates to Vero. Description: Vero cell cytotoxicity, cytotoxicity control for flavivirus capping enzyme inhibitors (AID 588742). The class given is functional. The following applies: Chlorocebus sabaeus.
Test [2] relates to Streptococcus sp. 'group A'. Description: growth inhibition of control SK(-) GAS strain, dose response, counter-screen for streptokinase expression inhibitor project, luminescence, kanamycin, BacTiterGlo, confirmation (AID 1900). The class given is functional, organism-based. For orientation: A counterscreen serves to expose hits that act by an unwanted route or on another target.

Test [3] can be described thus: AlphaScreen signal interference compounds, dose response, artefact control for ARNT-TACC3 interaction inhibitor project, biochemical, luminescence, cherry-pick (AID 651705).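 Note: AlphaScreen bead proximity signal that flags compounds interfering with the detection technology; potency reflects signal decrease which marks the compound as an assay artifact.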 It is filed as functional.
For test [4], the target named is T2, Apoptotic protease-activating factor 1 (Homo sapiens, UniProt O14727).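 Note: caspase-3 cleavage of fluorogenic Rh110 DEVD substrate downstream of apoptosome activation.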
T2 sequence (O14727 whole entry): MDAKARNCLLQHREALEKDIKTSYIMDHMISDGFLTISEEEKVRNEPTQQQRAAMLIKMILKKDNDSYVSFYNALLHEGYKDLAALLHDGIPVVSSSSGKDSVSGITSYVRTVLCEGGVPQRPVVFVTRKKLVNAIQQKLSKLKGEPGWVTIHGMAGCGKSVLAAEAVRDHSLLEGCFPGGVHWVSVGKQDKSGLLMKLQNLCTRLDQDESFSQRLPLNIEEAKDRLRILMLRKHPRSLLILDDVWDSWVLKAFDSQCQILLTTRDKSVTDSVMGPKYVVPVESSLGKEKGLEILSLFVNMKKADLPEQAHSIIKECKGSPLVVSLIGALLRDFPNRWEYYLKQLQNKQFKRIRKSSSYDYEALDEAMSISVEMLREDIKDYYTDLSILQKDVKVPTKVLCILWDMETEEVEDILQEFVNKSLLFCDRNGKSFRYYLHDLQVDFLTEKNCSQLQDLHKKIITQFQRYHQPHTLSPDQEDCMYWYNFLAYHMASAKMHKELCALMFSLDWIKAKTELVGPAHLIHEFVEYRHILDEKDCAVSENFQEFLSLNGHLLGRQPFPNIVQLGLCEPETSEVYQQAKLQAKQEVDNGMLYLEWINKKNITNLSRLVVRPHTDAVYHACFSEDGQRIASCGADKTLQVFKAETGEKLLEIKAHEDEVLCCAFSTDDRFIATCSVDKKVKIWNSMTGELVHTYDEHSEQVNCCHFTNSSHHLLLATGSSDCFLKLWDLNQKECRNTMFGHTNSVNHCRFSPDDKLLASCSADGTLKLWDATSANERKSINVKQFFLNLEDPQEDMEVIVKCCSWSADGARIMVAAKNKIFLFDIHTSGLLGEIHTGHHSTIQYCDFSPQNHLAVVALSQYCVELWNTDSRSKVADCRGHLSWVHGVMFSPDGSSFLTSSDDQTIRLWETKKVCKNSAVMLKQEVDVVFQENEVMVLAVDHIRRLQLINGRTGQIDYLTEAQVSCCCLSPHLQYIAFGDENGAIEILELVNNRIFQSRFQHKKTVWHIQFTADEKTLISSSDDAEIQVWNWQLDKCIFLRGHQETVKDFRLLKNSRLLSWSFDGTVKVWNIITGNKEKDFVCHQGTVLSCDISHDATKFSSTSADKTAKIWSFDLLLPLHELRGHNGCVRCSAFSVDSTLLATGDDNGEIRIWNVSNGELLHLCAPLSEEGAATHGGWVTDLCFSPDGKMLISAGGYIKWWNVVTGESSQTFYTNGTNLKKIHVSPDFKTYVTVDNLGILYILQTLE
Kind of test: SAR analysis of small molecule Activators of Apaf-1 in a Fluorescent assay. The following applies: read-out: EC50_Mean. The class given is functional.

The target of test [5] is T3, Tyrosine-protein phosphatase non-receptor type 5 (Homo sapiens, UniProt P54829).
T3 sequence (P54829 whole entry): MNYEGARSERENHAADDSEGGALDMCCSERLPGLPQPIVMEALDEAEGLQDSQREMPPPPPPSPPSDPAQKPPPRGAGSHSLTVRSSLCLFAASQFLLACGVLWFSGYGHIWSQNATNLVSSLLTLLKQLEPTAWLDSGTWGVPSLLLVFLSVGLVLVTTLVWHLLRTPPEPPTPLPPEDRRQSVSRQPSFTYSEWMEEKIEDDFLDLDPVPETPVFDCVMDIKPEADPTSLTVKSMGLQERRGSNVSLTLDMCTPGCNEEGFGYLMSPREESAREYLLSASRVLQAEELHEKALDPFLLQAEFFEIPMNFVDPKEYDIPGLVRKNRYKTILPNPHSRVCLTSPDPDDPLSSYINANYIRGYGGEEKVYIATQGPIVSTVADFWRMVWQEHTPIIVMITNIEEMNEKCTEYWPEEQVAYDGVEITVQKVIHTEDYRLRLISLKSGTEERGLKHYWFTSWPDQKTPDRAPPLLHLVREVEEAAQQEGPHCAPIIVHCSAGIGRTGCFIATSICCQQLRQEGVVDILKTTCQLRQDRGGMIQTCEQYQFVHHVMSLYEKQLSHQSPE
Description: STEP phosphatase inhibitors, confirmation, biochemical, fluorescence intensity, uHTS hits (AID 602372). The class given is functional. The following applies: read-out: IC50_Mean.

For test [6], the target named is T4, Tyrosine-protein phosphatase non-receptor type 11 (Homo sapiens, UniProt Q06124).
T4 sequence (Q06124 whole entry): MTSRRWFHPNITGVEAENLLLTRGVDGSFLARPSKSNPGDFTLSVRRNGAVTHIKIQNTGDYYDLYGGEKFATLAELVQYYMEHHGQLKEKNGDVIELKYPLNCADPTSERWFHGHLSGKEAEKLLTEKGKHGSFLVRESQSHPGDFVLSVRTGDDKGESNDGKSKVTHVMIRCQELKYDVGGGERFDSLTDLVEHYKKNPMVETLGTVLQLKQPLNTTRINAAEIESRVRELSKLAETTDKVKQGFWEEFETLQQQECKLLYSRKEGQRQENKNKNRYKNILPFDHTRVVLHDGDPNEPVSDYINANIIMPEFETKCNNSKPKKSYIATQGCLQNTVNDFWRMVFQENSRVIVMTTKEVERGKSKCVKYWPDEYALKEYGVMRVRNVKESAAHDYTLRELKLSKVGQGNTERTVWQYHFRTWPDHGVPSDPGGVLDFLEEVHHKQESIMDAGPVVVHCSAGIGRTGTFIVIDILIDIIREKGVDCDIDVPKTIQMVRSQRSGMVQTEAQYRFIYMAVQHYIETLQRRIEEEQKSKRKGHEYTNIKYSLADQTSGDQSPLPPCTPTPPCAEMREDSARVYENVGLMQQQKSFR
Description: SHP2 phosphatase inhibition, dose response, selectivity assay for STEP inhibitor project, biochemical (AID 602367). It is filed as functional. The following applies: read-out: IC50_Mean.

The target in test [7] is Dual specificity protein phosphatase 3 (Homo sapiens, UniProt P51452). Description: VHR phosphatase inhibition, dose response, selectivity assay for STEP inhibitor project, biochemical (AID 602374). The class given is functional. The following applies: read-out: IC50_Mean.
The target in test [8] is T5, Low molecular weight phosphotyrosine protein phosphatase (Homo sapiens, UniProt P24666).
T5 sequence (P24666 whole entry): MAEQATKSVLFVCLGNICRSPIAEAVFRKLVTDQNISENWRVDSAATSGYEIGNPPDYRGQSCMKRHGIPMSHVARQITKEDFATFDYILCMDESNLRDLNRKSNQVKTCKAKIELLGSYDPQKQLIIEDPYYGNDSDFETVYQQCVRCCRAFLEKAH
It is filed as functional. The note with it: read-out: IC50_Mean.

The target of test [9] is T5, Low molecular weight phosphotyrosine protein phosphatase. The class given is functional. The following applies: read-out: IC50_Mean. The source holds these as a separate data set.
Test [10] addresses T6, ATP-dependent translocase ABCB1 (Homo sapiens, UniProt P08183). Description: ABCG2 efflux pump inhibitor potency, dose response, Ig-MXP3 cells, JC-1, flow cytometry, set 2 (AID 504566).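 Note: flow cytometry median green fluorescence of retained JC-1 dye; potency of efflux pump inhibition measured as rising substrate retention.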 It is filed as functional. The note with it: read-out: EC50_MICROM_.
For test [11], the target named is T6, ATP-dependent translocase ABCB1. Kind of test: ABCB1 efflux inhibitor potency, dose response, Jurkat-DNR cells, JC-1, flow cytometry, set 2 (AID 504569).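 Note: potency of pump inhibitors that raise cellular JC-1 green fluorescence up to the nicardipine level.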 The class given is functional. The note with it: read-out: EC50_MICROM_. Background: Flow cytometry measures light scatter and fluorescence of single cells or particles in a stream.
Test [12] addresses T7, Interleukin-8 (Homo sapiens, UniProt P10145). Kind of test: Dose Response confirmation of uHTS small molecule hits for cystic fibrosis induced NFkb Inhibitors in a PAF-induced IL8 counterscreen. It is filed as functional. The note with it: read-out: IC50_Mean.
Test [13] deals with T7, Interleukin-8. Kind of test: Dose Response confirmation of uHTS small molecule hits for cystic fibrosis induced NFkb Inhibitors in a TNFa-induced IL8 counterscreen. The class given is functional. The note with it: read-out: IC50_Mean.

Active and inactive are the calls of the source.

T7 sequence (P10145 whole entry): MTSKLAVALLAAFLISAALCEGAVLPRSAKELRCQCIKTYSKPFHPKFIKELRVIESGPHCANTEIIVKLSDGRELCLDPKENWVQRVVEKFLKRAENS
T6 sequence (P08183 whole entry): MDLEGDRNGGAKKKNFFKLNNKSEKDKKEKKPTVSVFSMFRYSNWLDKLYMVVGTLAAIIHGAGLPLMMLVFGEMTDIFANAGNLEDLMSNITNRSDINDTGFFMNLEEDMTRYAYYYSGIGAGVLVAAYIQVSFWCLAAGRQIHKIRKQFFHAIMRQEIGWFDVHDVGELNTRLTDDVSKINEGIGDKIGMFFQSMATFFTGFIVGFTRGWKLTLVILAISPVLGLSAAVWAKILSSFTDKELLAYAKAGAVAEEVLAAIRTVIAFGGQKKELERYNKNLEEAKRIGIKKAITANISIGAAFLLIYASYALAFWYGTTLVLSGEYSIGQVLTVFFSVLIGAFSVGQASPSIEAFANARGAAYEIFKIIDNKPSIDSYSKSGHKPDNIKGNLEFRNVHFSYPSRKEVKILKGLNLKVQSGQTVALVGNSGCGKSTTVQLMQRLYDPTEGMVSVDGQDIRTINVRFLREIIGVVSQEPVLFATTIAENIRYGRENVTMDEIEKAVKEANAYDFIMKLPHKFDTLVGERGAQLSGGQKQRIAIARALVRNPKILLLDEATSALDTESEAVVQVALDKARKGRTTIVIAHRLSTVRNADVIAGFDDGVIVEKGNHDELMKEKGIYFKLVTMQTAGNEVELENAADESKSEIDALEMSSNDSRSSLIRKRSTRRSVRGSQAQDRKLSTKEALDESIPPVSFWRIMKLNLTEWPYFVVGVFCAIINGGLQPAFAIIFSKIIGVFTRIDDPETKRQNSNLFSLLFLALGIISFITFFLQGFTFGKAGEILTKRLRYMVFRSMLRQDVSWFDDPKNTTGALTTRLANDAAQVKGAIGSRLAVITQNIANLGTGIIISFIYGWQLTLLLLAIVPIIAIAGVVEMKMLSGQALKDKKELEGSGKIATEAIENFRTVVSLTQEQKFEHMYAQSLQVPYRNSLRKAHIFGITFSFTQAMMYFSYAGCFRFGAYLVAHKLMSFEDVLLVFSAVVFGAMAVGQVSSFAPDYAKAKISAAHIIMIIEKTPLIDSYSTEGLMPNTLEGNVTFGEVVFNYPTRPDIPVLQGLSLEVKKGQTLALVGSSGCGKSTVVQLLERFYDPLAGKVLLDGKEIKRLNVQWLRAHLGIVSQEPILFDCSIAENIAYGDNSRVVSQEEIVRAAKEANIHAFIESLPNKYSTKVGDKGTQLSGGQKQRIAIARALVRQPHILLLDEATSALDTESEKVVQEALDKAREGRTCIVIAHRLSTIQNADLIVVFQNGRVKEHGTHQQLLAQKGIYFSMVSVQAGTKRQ
Sequence of Dual specificity protein phosphatase 3 (P51452 whole entry): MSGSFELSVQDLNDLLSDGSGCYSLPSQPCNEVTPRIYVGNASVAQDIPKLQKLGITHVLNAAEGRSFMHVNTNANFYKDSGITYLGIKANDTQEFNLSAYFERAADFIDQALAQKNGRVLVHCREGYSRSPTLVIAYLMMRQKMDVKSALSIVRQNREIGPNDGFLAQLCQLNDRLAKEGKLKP
Sequence of Genome polyprotein (P29990 2492-3391 limits assumed): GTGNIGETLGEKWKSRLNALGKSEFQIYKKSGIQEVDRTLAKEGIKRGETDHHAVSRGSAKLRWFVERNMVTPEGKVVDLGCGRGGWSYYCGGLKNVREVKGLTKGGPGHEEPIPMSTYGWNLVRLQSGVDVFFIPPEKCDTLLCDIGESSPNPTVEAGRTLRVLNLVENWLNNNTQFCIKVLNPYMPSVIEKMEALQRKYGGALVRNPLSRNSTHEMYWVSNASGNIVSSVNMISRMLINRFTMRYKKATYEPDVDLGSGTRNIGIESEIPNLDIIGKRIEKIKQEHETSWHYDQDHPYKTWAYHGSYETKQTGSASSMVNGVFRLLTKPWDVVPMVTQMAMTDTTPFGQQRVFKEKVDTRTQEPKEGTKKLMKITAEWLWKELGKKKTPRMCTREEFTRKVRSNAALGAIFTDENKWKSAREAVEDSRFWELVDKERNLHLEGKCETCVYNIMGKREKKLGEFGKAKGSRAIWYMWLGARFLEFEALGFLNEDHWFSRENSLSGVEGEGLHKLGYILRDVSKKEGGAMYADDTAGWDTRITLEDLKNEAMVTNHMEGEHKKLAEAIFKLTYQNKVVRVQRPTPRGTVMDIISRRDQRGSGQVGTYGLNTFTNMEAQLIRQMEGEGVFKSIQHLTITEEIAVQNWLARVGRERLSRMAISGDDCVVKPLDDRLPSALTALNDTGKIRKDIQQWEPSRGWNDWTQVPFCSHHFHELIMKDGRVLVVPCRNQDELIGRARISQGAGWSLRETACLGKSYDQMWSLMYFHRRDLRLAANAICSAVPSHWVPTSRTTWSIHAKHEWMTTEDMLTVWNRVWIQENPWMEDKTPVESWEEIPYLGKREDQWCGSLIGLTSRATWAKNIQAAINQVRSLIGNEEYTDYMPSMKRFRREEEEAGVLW

`COc1cccc(-c2coc3c(C)c4oc(=O)c(CCC(=O)O)c(C)c4cc23)c1`: on Genome polyprotein, the IC50 is 40.5 µM (active). Besides, the values for the EC50 (on Streptokinase A; in the test on Streptococcus; in test [2]) were > 150 µM (not active), 13.4 µM (active) and 2.4 µM (active), respectively. In addition, the AC50 in [1] was 130 µM (active); in test [3] it was 98 µM (active). Further, the CC50 in the test with Vero is > 40 µM (active).

Regarding `Cc1cc(C)c(O)c(N2CC(C(=O)O)CC2=O)c1` (configuration not stated), the EC50 in test [4] is > 100 µM (inactive).

Take `O=C(N/N=C/c1cccc([N+](=O)[O-])c1)c1ccc(Br)cc1`: the IC50 is 8.16 µM (active) in test [5]; 6.62 µM (active) in test [6]; 5.03 µM (active) in [7]; 22.8 µM (inactive) in test [8]; 15.1 µM (active) in [9].

Take `O=C(c1ccccc1Cl)N1CCN(c2cc(-c3ccccc3)nc3cc(-c4cccc(Cl)c4)nn23)CC1`: the EC50 in test [10] is 1.15 µM (active); in test [11], 1.07 µM (active).

Consider `Fc1cccc(Cl)c1/C=N/Nc1c(Cl)cncc1Cl`, for which the IC50 at Interleukin-8 [12] was 14.8 µM (inactive); at Interleukin-8 [13] it was > 79 µM (inactive).

By AC50 is commonly meant the concentration at which the activity in the assay is half-maximal. The CC50 is the concentration giving 50% cytotoxicity.
